For one test, the system named is Erysiphe graminis tritici (powdery mildew). Briefly: Greenhouse Test 1, foliar spray fungicide screen (POWD MDEW), host wheat. It is filed as in vivo. Conditions: disease control rating, 400 ppm (+++ at 100 ppm).
As to `c1ccc(CCCc2ncnc3ccccc23)cc1` [Example 29, 4-(3-phenylpropyl)quinazoline], the “POWD MDEW” value is “+ (+ = 20-89% control at 400 ppm)”.
Still for that read-out and setting: then `Fc1cccc2c(NCCc3ccc4ccccc4c3)ncnc12` [Example 31, 8-fluoro-N-[2-(2-naphthyl)ethyl]-4-quinazolinamine], with “+ (+ = 20-89% control at 400 ppm)”; and `c1ccc(Oc2cccc(CCNc3ncnc4ccccc34)c2)cc1` [Example 38, N-[2-(3-phenoxyphenyl)ethyl]-4-quinazolinamine], with “++ (++ = 90-100% control at 400 ppm)”.

The subject of another test is Pyricularia oryzae (rice blast).
Experiment: not given
It counts as in vivo. Conditions: disease control rating, foliar spray, host rice; 400 ppm (+++ at 100 ppm).
`c1ccc(CCCc2ncnc3ccccc23)cc1` [Example 29, 4-(3-phenylpropyl)quinazoline]: the “RICE BLAST” value was “+++ (+++ = 90-100% control at 100 ppm)”.
`Fc1cccc2c(NCCc3ccc4ccccc4c3)ncnc12` [Example 31, 8-fluoro-N-[2-(2-naphthyl)ethyl]-4-quinazolinamine]: the “RICE BLAST” value is on record as “+++ (+++ = 90-100% control at 100 ppm)”.
For `c1ccc(Oc2cccc(CCNc3ncnc4ccccc34)c2)cc1` [Example 38, N-[2-(3-phenoxyphenyl)ethyl]-4-quinazolinamine], the “RICE BLAST” value is recorded as “+++ (+++ = 90-100% control at 100 ppm)”.

The subject of another test is Puccinia recondita tritici (leaf rust). The experiment in a line: Greenhouse Test 1, foliar spray fungicide screen (LEAF RUST), host wheat. It is filed as in vivo. The following applies: disease control rating, 400 ppm (+++ at 100 ppm).
For the compound `c1ccc(CCCc2ncnc3ccccc23)cc1` [Example 29, 4-(3-phenylpropyl)quinazoline], the “LEAF RUST” value was “++ (++ = 90-100% control at 400 ppm)”.
On to `Fc1cccc2c(NCCc3ccc4ccccc4c3)ncnc12` [Example 31, 8-fluoro-N-[2-(2-naphthyl)ethyl]-4-quinazolinamine], for which the “LEAF RUST” value was “+++ (+++ = 90-100% control at 100 ppm)”.
With `c1ccc(Oc2cccc(CCNc3ncnc4ccccc34)c2)cc1` [Example 38, N-[2-(3-phenoxyphenyl)ethyl]-4-quinazolinamine], the “LEAF RUST” value is reported as “+++ (+++ = 90-100% control at 100 ppm)”.

In the next test the test system is Botrytis cinerea (gray mold). The experiment in a line: Greenhouse Test 1, foliar spray fungicide screen (GRAY MOLD), host grape berries. The following applies: disease control rating, 400 ppm (+++ at 100 ppm). It counts as in vivo.
Take `c1ccc(CCCc2ncnc3ccccc23)cc1` [Example 29, 4-(3-phenylpropyl)quinazoline]: the “GRAY MOLD” value is recorded as “- (- = 0-19% control at 400 ppm)”.
Take `Fc1cccc2c(NCCc3ccc4ccccc4c3)ncnc12` [Example 31, 8-fluoro-N-[2-(2-naphthyl)ethyl]-4-quinazolinamine]: the “GRAY MOLD” value is recorded as “- (- = 0-19% control at 400 ppm)”.
`c1ccc(Oc2cccc(CCNc3ncnc4ccccc34)c2)cc1` [Example 38, N-[2-(3-phenoxyphenyl)ethyl]-4-quinazolinamine]: the “GRAY MOLD” value is given as “- (- = 0-19% control at 400 ppm)”.

The test system of another test is Pseudoperonospora cubensis (downy mildew). The experiment in a line: Greenhouse Test 1, foliar spray fungicide screen (DOWN MDEW), host squash. It is filed as in vivo. Conditions: disease control rating, 400 ppm (+++ at 100 ppm).
As for `c1ccc(CCCc2ncnc3ccccc23)cc1` [Example 29, 4-(3-phenylpropyl)quinazoline], the “DOWN MDEW” value is “++ (++ = 90-100% control at 400 ppm)”.
Consider `Fc1cccc2c(NCCc3ccc4ccccc4c3)ncnc12` [Example 31, 8-fluoro-N-[2-(2-naphthyl)ethyl]-4-quinazolinamine], for which the “DOWN MDEW” value is “++ (++ = 90-100% control at 400 ppm)”.
On the same count and under the same terms, then `c1ccc(Oc2cccc(CCNc3ncnc4ccccc34)c2)cc1` [Example 38, N-[2-(3-phenoxyphenyl)ethyl]-4-quinazolinamine], with “+++ (+++ = 90-100% control at 100 ppm)”.

The next test has as its system Cercospora beticola (leaf spot). Briefly: Greenhouse Test 1, foliar spray fungicide screen (LEAF SPOT), host sugar beet. It counts as in vivo. The following applies: disease control rating, 400 ppm (+++ at 100 ppm).
Regarding `c1ccc(CCCc2ncnc3ccccc23)cc1` [Example 29, 4-(3-phenylpropyl)quinazoline], the “LEAF SPOT” value was “- (- = 0-19% control at 400 ppm)”.
Take `Fc1cccc2c(NCCc3ccc4ccccc4c3)ncnc12` [Example 31, 8-fluoro-N-[2-(2-naphthyl)ethyl]-4-quinazolinamine]: the “LEAF SPOT” value is given as “+ (+ = 20-89% control at 400 ppm)”.
As for `c1ccc(Oc2cccc(CCNc3ncnc4ccccc34)c2)cc1` [Example 38, N-[2-(3-phenoxyphenyl)ethyl]-4-quinazolinamine], the “LEAF SPOT” value was “+ (+ = 20-89% control at 400 ppm)”.

The next test deals with Venturia inaequalis (apple scab). Briefly: Greenhouse Test 1, foliar spray fungicide screen (APPL SCAB), host apple seedling. It counts as in vivo. The following applies: disease control rating, 400 ppm (+++ at 100 ppm).
Take `c1ccc(CCCc2ncnc3ccccc23)cc1` [Example 29, 4-(3-phenylpropyl)quinazoline]: the “APPL SCAB” value was “+ (+ = 20-89% control at 400 ppm)”.
With `Fc1cccc2c(NCCc3ccc4ccccc4c3)ncnc12` [Example 31, 8-fluoro-N-[2-(2-naphthyl)ethyl]-4-quinazolinamine], the “APPL SCAB” value is listed as “- (- = 0-19% control at 400 ppm)”.
Still for that read-out and setting: then `c1ccc(Oc2cccc(CCNc3ncnc4ccccc34)c2)cc1` [Example 38, N-[2-(3-phenoxyphenyl)ethyl]-4-quinazolinamine], with “+ (+ = 20-89% control at 400 ppm)”.

In another test the test system is Septoria tritici (leaf blotch). The experiment in a line: Greenhouse Test 1, foliar spray fungicide screen (LEAF BLOT), host wheat. It counts as in vivo. The following applies: disease control rating, 400 ppm (+++ at 100 ppm).
Take `c1ccc(CCCc2ncnc3ccccc23)cc1` [Example 29, 4-(3-phenylpropyl)quinazoline]: the “LEAF BLOT” value was “- (- = 0-19% control at 400 ppm)”.
The same measure, in the same setting: the same measure for `Fc1cccc2c(NCCc3ccc4ccccc4c3)ncnc12` [Example 31, 8-fluoro-N-[2-(2-naphthyl)ethyl]-4-quinazolinamine]: “+++ (+++ = 90-100% control at 100 ppm)”; for `c1ccc(Oc2cccc(CCNc3ncnc4ccccc34)c2)cc1` [Example 38, N-[2-(3-phenoxyphenyl)ethyl]-4-quinazolinamine]: “++ (++ = 90-100% control at 400 ppm)”.

The next test deals with Southern corn rootworm (Diabrotica undecimpuctata howardi Barber). The experiment in a line: Mite/insect screen, soil treatment (CRW). It is filed as in vivo. Conditions: Diabrotica; percent mortality; soil treatment, CRW rate 12.00 ppm; read-out: CRW RESULTS %. The method in brief:
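Compounds dissolved in acetone/alcohol (50:50) with Toximul R/S emulsifiers, diluted with water. Soil (15 g, with presoaked corn seed) treated with 1 mL test solution, dried 6–12 h, then five 2–3 instar larvae added; held at 23°C. Percent mortality and phytotoxicity scored after standard exposure periods.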
On to `Fc1cccc2c(NCCc3ccc4ccccc4c3)ncnc12` [Example 31, 8-fluoro-N-[2-(2-naphthyl)ethyl]-4-quinazolinamine], for which the mortality at 12 ppm worked out at 0%.
Consider `c1ccc(Oc2cccc(CCNc3ncnc4ccccc34)c2)cc1` [Example 38, N-[2-(3-phenoxyphenyl)ethyl]-4-quinazolinamine], for which the mortality at 12 ppm came to 0%.

The test is the same for the next values; noted with them: Diabrotica; percent mortality; soil treatment, CRW rate 24.00 ppm; read-out: CRW RESULTS %.
Consider `c1ccc(CCCc2ncnc3ccccc23)cc1` [Example 29, 4-(3-phenylpropyl)quinazoline], for which the mortality at 24 ppm turned out to be 0%.
On the same count and under the same terms, then `Fc1cccc2c(NCCc3ccc4ccccc4c3)ncnc12` [Example 31, 8-fluoro-N-[2-(2-naphthyl)ethyl]-4-quinazolinamine], with 0%; and `c1ccc(Oc2cccc(CCNc3ncnc4ccccc34)c2)cc1` [Example 38, N-[2-(3-phenoxyphenyl)ethyl]-4-quinazolinamine], with 100%.

Another test relates to southern armyworm (Spodopetra eridania Cramer). The experiment in a line: Mite/insect screen, sprayed squash leaves (SAW). It is filed as in vivo. The following applies: Spodoptera eridania, percent mortality; spray rate 200 ppm; read-out: SAW RESULTS %. In outline: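 For the armyworm test, two uninfested sprayed leaves were excised, once dry for an hour, and placed in a Petri dish holding larvae. Spray solutions came from an emulsifier-containing 50:50 acetone/alcohol formulation diluted with water and were applied to runoff.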
Regarding `Fc1cccc2c(NCCc3ccc4ccccc4c3)ncnc12` [Example 31, 8-fluoro-N-[2-(2-naphthyl)ethyl]-4-quinazolinamine], the mortality at 200 ppm is 80%.
Turning to `c1ccc(Oc2cccc(CCNc3ncnc4ccccc34)c2)cc1` [Example 38, N-[2-(3-phenoxyphenyl)ethyl]-4-quinazolinamine], the mortality at 200 ppm worked out at 40%.

Staying with this test, now noted: Spodoptera eridania, percent mortality; spray rate 400 ppm; read-out: SAW RESULTS %.
Take `c1ccc(CCCc2ncnc3ccccc23)cc1` [Example 29, 4-(3-phenylpropyl)quinazoline]: the mortality at 400 ppm was 0%.
On the same count and under the same terms, then `Fc1cccc2c(NCCc3ccc4ccccc4c3)ncnc12` [Example 31, 8-fluoro-N-[2-(2-naphthyl)ethyl]-4-quinazolinamine], with 30%; and `c1ccc(Oc2cccc(CCNc3ncnc4ccccc34)c2)cc1` [Example 38, N-[2-(3-phenoxyphenyl)ethyl]-4-quinazolinamine], with 40%.

Another test deals with Twospotted spider mites (Tetranychus urticae Koch). The experiment in a line: Mite/insect screen, sprayed squash cotyledons (SM). It counts as in vivo. Conditions: Tetranychus urticae, percent mortality; spray rate 200 ppm; read-out: SM RESULTS %. The method in brief: (§1)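 Percent mortality and phytotoxicity are the read-outs, assessed after standard exposure periods. Test solutions, made in 50:50 acetone/alcohol with two sulfonate/nonionic emulsifier blends and diluted in water, are sprayed to runoff on both leaf surfaces, which then dry for one hour.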
For the compound `Fc1cccc2c(NCCc3ccc4ccccc4c3)ncnc12` [Example 31, 8-fluoro-N-[2-(2-naphthyl)ethyl]-4-quinazolinamine], the mortality at 200 ppm turned out to be 0%.
With `c1ccc(Oc2cccc(CCNc3ncnc4ccccc34)c2)cc1` [Example 38, N-[2-(3-phenoxyphenyl)ethyl]-4-quinazolinamine], the mortality at 200 ppm was 0%.

The test is the same for the next values; noted with them: Tetranychus urticae, percent mortality; spray rate 400 ppm; read-out: SM RESULTS %.
Turning to `c1ccc(CCCc2ncnc3ccccc23)cc1` [Example 29, 4-(3-phenylpropyl)quinazoline], the mortality at 400 ppm was 80%.
With `Fc1cccc2c(NCCc3ccc4ccccc4c3)ncnc12` [Example 31, 8-fluoro-N-[2-(2-naphthyl)ethyl]-4-quinazolinamine], the mortality at 400 ppm is 0%.
The same measure, in the same setting: the same measure for `c1ccc(Oc2cccc(CCNc3ncnc4ccccc34)c2)cc1` [Example 38, N-[2-(3-phenoxyphenyl)ethyl]-4-quinazolinamine]: 90%.

Another test has as its system melon aphids (Aphis gossypii Glover). The experiment in a line: Mite/insect screen, sprayed squash cotyledons (MA). It counts as in vivo. The following applies: Aphis gossypii, percent mortality; spray rate 200 ppm; read-out: MA RESULTS %. The method in brief: as §1
For the compound `Fc1cccc2c(NCCc3ccc4ccccc4c3)ncnc12` [Example 31, 8-fluoro-N-[2-(2-naphthyl)ethyl]-4-quinazolinamine], the mortality at 200 ppm is 40%.
Still for that read-out and setting: then `c1ccc(Oc2cccc(CCNc3ncnc4ccccc34)c2)cc1` [Example 38, N-[2-(3-phenoxyphenyl)ethyl]-4-quinazolinamine], with 0%.

The test is the same for the next values; noted with them: Aphis gossypii, percent mortality; spray rate 400 ppm; read-out: MA RESULTS %.
In the case of `c1ccc(CCCc2ncnc3ccccc23)cc1` [Example 29, 4-(3-phenylpropyl)quinazoline], the mortality at 400 ppm worked out at 80%.
Same read-out and setting: then `Fc1cccc2c(NCCc3ccc4ccccc4c3)ncnc12` [Example 31, 8-fluoro-N-[2-(2-naphthyl)ethyl]-4-quinazolinamine], with 0%.
In the case of `c1ccc(Oc2cccc(CCNc3ncnc4ccccc34)c2)cc1` [Example 38, N-[2-(3-phenoxyphenyl)ethyl]-4-quinazolinamine], the mortality at 400 ppm turned out to be 80%.

The values are drawn from patent EP0326329B1, “Quinazoline derivatives useful as insecticides” (Dow AgroSciences LLC, priority 1988, dated 1989).
